Values joined by “and” are separate entries in the source; they are usually repeats but may differ in a detail not shown here. Equal values may be shown once.
Target: T1, human β3-adrenergic receptor (Homo sapiens, UniProt P13945)
T1 construct: Full length β3 AR clones (402 amino acids) containing the last 6 amino acids of hβ3—AR are prepared; expressed in transfected cells; host or cells: CHO cells
Experiment: cAMP response (SPA kit) in CHO cells transfected with human β3 adrenergic receptor
Assay type: cell-based
Details: for EC50: CHO cells expressing human β3-AR, 10^-9 M to 10^-5 M, 30 min at 37° C., cAMP by SPA, read-out: EC50(β3); for IA(β3): maximal response of compound compared to maximal response of isoproterenol at 10^-5 M, CHO cells, human β3-AR

T1 sequence (P13945 whole entry): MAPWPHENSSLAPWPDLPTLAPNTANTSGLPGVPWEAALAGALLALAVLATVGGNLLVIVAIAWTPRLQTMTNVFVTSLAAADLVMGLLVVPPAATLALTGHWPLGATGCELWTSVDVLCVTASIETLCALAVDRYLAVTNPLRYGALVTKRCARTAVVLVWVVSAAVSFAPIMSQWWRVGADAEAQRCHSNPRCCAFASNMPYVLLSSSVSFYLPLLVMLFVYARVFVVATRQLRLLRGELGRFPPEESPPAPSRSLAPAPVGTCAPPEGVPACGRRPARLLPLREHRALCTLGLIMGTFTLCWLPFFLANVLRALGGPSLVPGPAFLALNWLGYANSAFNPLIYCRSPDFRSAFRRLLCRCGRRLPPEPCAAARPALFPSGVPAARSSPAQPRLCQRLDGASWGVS

Row | Molecule | EC50 | IA(β3)
1 | O=C(O)COc1ccc(NC(=O)N2CCC(Nc3ccc(CCNC[C@H](O)COc4ccc(O)cc4)cc3)CC2)cc1 [Example 58, (4-{[4-(4-{2-[(2S)-2-Hydroxy-3-(4-hydroxy-phenoxy)-propylamino]-ethyl}-phenylamino)-piperidine-1-carbonyl]-amino}-phenoxy)-acetic Acid] | 320 nM | 1.61
2 | CC(C)NC(=O)N1CCC(Nc2ccc(CCNC[C@H](O)COc3ccc(O)cc3)cc2)CC1 [Example 11] | 90 nM | 1.05
3 | O=C(OCc1cc(F)ccc1F)N1CCC(Nc2ccc(CCNC[C@H](O)COc3ccc(O)cc3)cc2)CC1 [Example 122, 4-(4-{2-[(2S)-2-Hydroxy-3-(4-hydroxy-phenoxy)-propylamino]-ethyl}-phenylamino)-piperidine-1-carboxylic Acid 2,5-difluoro-benzyl Ester] | 100 nM | 0.81
4 | CCCCCCCCNC(=O)N1CCC(Nc2ccc(CCNC[C@H](O)COc3ccc(N)nc3)cc2)CC1 [Example 5, 4-(4-{2-[(2S)-3-(6-Amino-pyridin-3-yloxy)-2-hydroxy-propylamino]-ethyl}-phenylamino)-piperidine-1-carboxylic Acid Octylamide] |  | 0.68
5 | Cc1ccc(S(=O)(=O)N2CCC(Nc3ccc(CCNC[C@H](O)COc4ccc(O)cc4)cc3)CC2)cc1 [Example 112, 4-[(2S)-2-Hydroxy-3-(2-{4-[1-(toluene-4-sulfonyl)-piperidin-4-ylamino]-phenyl}-ethylamino)-propoxy]-phenol] | 86 nM | 0.89
6 | CC(=O)Nc1nc(C)c(S(=O)(=O)N2CCC(Nc3ccc(CCNC[C@H](O)c4ccc(O)c(NS(C)(=O)=O)c4)cc3)CC2)s1 [Example 115, N-(5-{[4-(4-{2-[((2R)-2-hydroxy-2-{4-hydroxy-3-[(methylsulfonyl)amino]phenyl}-ethyl)amino]ethyl}anilino)piperidin-1-yl]sulfonyl}-4-methyl-1,3-thiazol-2-yl)acetamide] | 13 nM | 0.97
7 | 1H-Indole-2-carboxylic Acid (4-{2-[(2S)-2-hydroxy-3-(4-hydroxy-phenoxy)-propylamino]-ethyl}-phenyl)-amide [Example 91] | 51 nM | 1
8 | CC(=O)Nc1ccc(S(=O)(=O)N2CCC(Nc3ccc(CCNC[C@H](O)COc4ccc(O)cc4)cc3)CC2)cc1 [Example 114, N-{4-[4-(4-{2-[(2S)-2-Hydroxy-3-(4-hydroxy-phenoxy)-propylamino]-ethyl}-phenylamino)-piperidine-1-sulfonyl]-phenyl}-acetamide] | 33 nM | 1.1
9 | CCNC(=O)N1CCC(Nc2ccc(CCNC[C@H](O)COc3ccc(O)cc3)cc2)CC1 [Example 10, 4-(4-{2-[(2S)-2-Hydroxy-3-(4-hydroxy-phenoxy)-propylamino]-ethyl}-phenylamino)-piperidine-1-carboxylic Acid Ethylamide] | 43 nM | 0.85
10 | CCCCCCNC(=O)Nc1ccc(S(=O)(=O)N2CCC(Nc3ccc(CCNC[C@H](O)COc4ccc(O)cc4)cc3)CC2)cc1 [Example 108, 1-Hexyl-3-{4-[4-(4-{2-[(2S)-2-hydroxy-3-(4-hydroxy-phenoxy)-propylamino]-ethyl}-phenylamino)-piperidine-1-sulfonyl]-phenyl}-urea] | 7 nM | 1.08
11 | CCOC(=O)C1CCCN(C(=O)N2CCC(Nc3ccc(CCNC[C@H](O)c4ccc(O)c(NS(C)(=O)=O)c4)cc3)CC2)C1 (stereo partly drawn) [Example 78, 1-[[4-[[4-[2-[[(2R)-2-Hydroxy-2-[4-hydroxy-3-[(methylsulfonyl)amino]phenyl]ethyl]amino]ethyl]phenyl]amino]-1-piperidinyl]carbonyl]-3-piperidine Carboxylic Acid, Ethyl Ester] |  | 1
12 | Cc1ccsc1C(=O)N1CCC(Nc2ccc(CCNC[C@H](O)COc3cccc4[nH]c(=O)[nH]c34)cc2)CC1 [Example 101, 4-[(2S)-2-Hydroxy-3-(2-{4-[1-(3-methyl-thiophene-2-carbonyl)-piperidin-4-ylamino]-phenyl}-ethylamino)-propoxy]-1,3-dihydro-benzoimidazol-2-one] | 10 nM | 0.63
13 | O=C(NCc1ccc(O)cc1F)N1CCC(Nc2ccc(CCNC[C@H](O)COc3cccc(O)c3)cc2)CC1 [Example 87, 4-(4-{2-[(2S)-2-Hydroxy-3-(3-hydroxy-phenoxy)-propylamino]-ethyl}-phenylamino)-piperidine-1-carboxylic Acid 2-fluoro-4-hydroxy-benzylamide] | 4 nM | 0.84
14 | CCOC(=O)c1ccc(N2CCC(Nc3ccc(CCNC[C@H](O)c4ccc(O)c(NS(C)(=O)=O)c4)cc3)CC2)cc1 [Example 120, 4-[4-(4-{2-[(2R)-2-Hydroxy-2-(4-hydroxy-3-methanesulfonylamino-phenyl)-ethylamino]-ethyl}-phenylamino)-piperidin-1-yl]-benzoic Acid Ethyl Ester] | 25 nM | 1.1
15 | O=C(NCc1ccc(F)cc1)N1CCC(Nc2ccc(CCNC[C@H](O)COc3ccc(O)cc3)cc2)CC1 [Example 1, 4-(4-{2-[(2S)-2-Hydroxy-3-(4-hydroxy-phenoxy)-propylamino]-ethyl}-phenylamino)-piperidine-1-carboxylic Acid 4-fluoro-benzylamide] | 32 nM and 36 nM and 50 nM | 0.95 and 0.71 and 0.91
16 | CS(=O)(=O)Nc1cc([C@@H](O)CNCCc2ccc(NC3CCN(C(=O)N4CCC(C(=O)O)CC4)CC3)cc2)ccc1O [Example 52, 1-[4-(4-{2-[(2R)-2-Hydroxy-2-(4-hydroxy-3-methanesulfonylamino-phenyl)-ethylamino]-ethyl}-phenylamino)-piperidine-1-carbonyl]-piperidine-4-carboxylic Acid] | 69 nM | 0.82
17 | O=C(NCC1(c2ccccc2)CCCC1)N1CCC(S(=O)(=O)c2ccc(CCNC[C@H](O)COc3ccc(O)cc3)cc2)CC1 [Example 46, 4-(4-{2-[(2S)-2-Hydroxy-3-(4-hydroxy-phenoxy)-propylamino]-ethyl}-benzenesulfonyl)-piperidine-1-carboxylic Acid (1-phenyl-cyclopentylmethyl)-amide] | 162 nM | 0.82
18 | O=C(NCc1ccc(F)cc1)N1CCC(Nc2ccc(CCNC[C@H](O)COc3cccc(O)c3)cc2)CC1 [Example 85, 4-(4-{2-[(2S)-2-Hydroxy-3-(3-hydroxy-phenoxy)-propylamino]-ethyl}-phenylamino)-piperidine-1-carboxylic Acid 4-fluoro-benzylamide] | 3 nM | 0.82
19 | CN(C(=O)CCNC(=O)N1CCC(Nc2ccc(CCNC[C@H](O)COc3ccc(O)cc3)cc2)CC1)c1ccc(Cl)cc1 [Example 82, 4-(4-{2-[(2S)-2-Hydroxy-3-(4-hydroxy-phenoxy)-propylamino]-ethyl}-phenylamino)-piperidine-1-carboxylic Acid {2-[(4-chloro-phenyl)-methyl-carbamoyl]-ethyl}-amide] | 53 nM | 0.94
20 | COc1ccc2[nH]c(C(=O)N3CCC(Nc4ccc(CCNCC(O)COc5ccc(O)cc5)cc4)CC3)cc2c1 (stereo not shown) [Example 94, [4-(4-{2-[2-Hydroxy-3-(4-hydroxy-phenoxy)-propylamino]-ethyl}-phenylamino)-piperidin-1-yl]-(5-methoxy-1H-indol-2-yl)-methanone] | 10 nM and 54 nM | 0.59 and 0.78
21 | CCCCCCCCNC(=O)N1CCC(Oc2ccc(CCNC[C@H](O)COc3ccc(O)cc3)cc2)CC1 [Example 54, 4-[4-(2-{[(2S)-2-Hydroxy-3-(4-hydroxyphenoxy)propyl]amino}ethyl)phenoxy]-N-octyl-1-piperidinecarboxamide] | 1010 nM and 398 nM and 400 nM | 0.7 and 0.78 and 0.51
22 | COc1cccc(CCNC(=O)N2CCC(Nc3ccc(CCNC[C@H](O)COc4ccc(O)cc4)cc3)CC2)c1 [Example 6, 4-(4-{2-[(2S)-2-Hydroxy-3-(4-hydroxy-phenoxy)-propylamino]-ethyl}-phenylamino)-piperidine-1-carboxylic Acid [2-(3-methoxy-phenyl)-ethyl]-amide] | 106 nM | 1.21
23 | CNC(=O)N1CCC(Nc2ccc(CCNC[C@H](O)COc3ccc(O)cc3)cc2)CC1 [Example 9, 4-(4-{2-[(2S)-2-Hydroxy-3-(4-hydroxy-phenoxy)-propylamino]-ethyl}-phenylamino)-piperidine-1-carboxylic Acid Methylamide] |  | 0.85
24 | CCCCCCCCNC(=O)N1CCC(N(C(C)=O)c2ccc(CCNC[C@H](O)COc3ccc(O)cc3)cc2)CC1 [Example 8, 4-[Acetyl-(4-{2-[(2S)-2-hydroxy-3-(4-hydroxy-phenoxy)-propylamino]-ethyl}-phenyl)-amino]-piperidine-1-carboxylic Acid Octylamide] | 64 nM | 0.82
25 | O=C(O)COc1ccc(CNC(=O)N2CCC(Nc3ccc(CCNC[C@H](O)COc4ccc(O)cc4)cc3)CC2)c(F)c1 [Example 86, [3-Fluoro-4-[[[[4-[[4-[2-[[(S)-2-hydroxy-3-(4-hydroxyphenoxy)propyl]amino]ethyl]phenyl]amino]-1-piperidinyl]carbonyl]amino]methyl]phenoxy]acetic Acid] | 127 nM | 1.1
26 | O=C(NCc1ccc(F)cc1)N1CCC(Oc2ccc(CCNC[C@H](O)COc3ccc(O)cc3)cc2)CC1 [Example 56, 4-(4-{2-[(2S)2-Hydroxy-3-(4-hydroxy-phenoxy)-propylamino]-ethyl}-phenoxy)-piperidine-1-carboxylic Acid 4-fluoro-benzylamide] | 52 nM | 0.84
